Columns and labels:
Settings in all cases: 72 h
[1] = system: myeloid leukemia patient primary cells Pat.8; assay: area under dose-response curve (viability, 1 nM-10 uM) (fraction (0-1)); higher = more sensitive
Procedure: (§1)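 AUC (0–1, higher = more sensitive) of the 5-point dose–response (1 nM–10 µM, 72 h, CellTiter-Glo) in primary AML/CML patient mononuclear cells. 0.030103 is the floor for inactive compounds.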

[2] = system: myeloid leukemia patient primary cells Pat.2; assay: as above
Procedure: as §1

[3] = system: myeloid leukemia patient primary cells Pat.12; assay: as above
Procedure: as §1

[4] = system: myeloid leukemia patient primary cells Pat.13; assay: as above
Procedure: as §1

[5] = system: myeloid leukemia patient primary cells Pat.10; assay: as above
Procedure: as §1

[6] = system: myeloid leukemia patient primary cells Pat.9; assay: as above
Procedure: as §1

[7] = system: myeloid leukemia patient primary cells Pat.5; assay: as above
Procedure: as §1

[8] = system: myeloid leukemia patient primary cells Pat.11; assay: as above
Procedure: as §1

[9] = system: myeloid leukemia patient primary cells Pat.1; assay: as above
Procedure: as §1

[10] = system: myeloid leukemia patient primary cells Pat.6; assay: as above
Procedure: as §1

[11] = system: myeloid leukemia patient primary cells Pat.14; assay: as above
Procedure: as §1

[12] = system: myeloid leukemia patient primary cells Pat.7; assay: as above
Procedure: as §1

[13] = system: myeloid leukemia patient primary cells Pat.3; assay: as above
Procedure: as §1

[14] = system: myeloid leukemia patient primary cells Pat.15; assay: as above
Procedure: as §1

[15] = system: myeloid leukemia patient primary cells Pat.4; assay: as above
Procedure: as §1

BV-173 = assay: cell viability (% survival relative to DMSO control); higher = less cytotoxic
Procedure: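 8x8 drug-combination matrices (0–5000 nM; rosiglitazone and lestaurtinib 0–1000 nM) were run in BV-173 cells for 72 h with CellTiter-Glo read-out. Survival is normalised to DMSO and 10 µM bortezomib and clipped at 100%.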

Cc1nnc(-c2ccc(N3CCC(Oc4ccccc4C(F)(F)F)CC3)nn2)s1 [MF-438]
Settings | area under dose-response curve
[1] | < 0.0301
[2] | < 0.0301
[3] | < 0.0301
[4] | < 0.0301
[5] | < 0.0301
[6] | < 0.0301
[7] | 0.232
[8] | < 0.0301
[9] | < 0.0301
[10] | < 0.0301
[11] | < 0.0301
[12] | 0.128

CCCCCCCCCCCCC/C=C/[C@@H](O)[C@H](CO)N(C)C [N,N-Dimethylsphingosine]
Settings | area under dose-response curve
[1] | 0.114
[2] | 0.127
[3] | 0.0829
[4] | 0.131
[5] | 0.468
[6] | 0.516
[7] | 0.664
[8] | 0.0868
[9] | 0.0643
[10] | 0.15
[11] | 0.273
[12] | 0.335
[13] | 0.384
[14] | 0.113
[15] | 0.153

Nc1ccn([C@@H]2O[C@H](CO)[C@@H](O)C2(F)F)c(=O)n1 [Gemcitabine]
Settings | area under dose-response curve
[1] | 0.0474
[2] | 0.0848
[3] | < 0.0301
[4] | 0.0519
[5] | 0.257
[6] | 0.956
[7] | 0.956
[9] | 0.0673
[10] | < 0.0301
[11] | 0.131
[12] | 0.135
[13] | 0.782
[14] | 0.0872
[15] | 0.155

C=C1NC(=O)c2cc(CN(C)c3ccc(C(=O)N[C@@H](CCC(=O)O)C(=O)O)s3)ccc2N1 [Raltitrexed]
Settings | area under dose-response curve
[1] | < 0.0301
[2] | < 0.0301
[3] | < 0.0301
[4] | < 0.0301
[5] | < 0.0301
[6] | < 0.0301
[7] | < 0.0301
[8] | < 0.0301
[9] | < 0.0301
[10] | < 0.0301
[11] | < 0.0301
[12] | < 0.0301
[13] | 0.324
[14] | < 0.0301
[15] | < 0.0301

O=C(c1c2ccccc2cc2ccccc12)N1CCC(N2CCC[C@@H](C(=O)N3CCOCC3)C2)CC1
Settings | area under dose-response curve
[1] | < 0.0301
[2] | < 0.0301
[3] | < 0.0301
[4] | < 0.0301
[5] | < 0.0301
[6] | 0.327
[7] | 0.309
[8] | < 0.0301
[9] | < 0.0301
[10] | < 0.0301
[11] | < 0.0301
[12] | 0.312
[13] | < 0.0301
[14] | < 0.0301
[15] | < 0.0301

Oc1ncc(F)c(O)n1 [5-fluorouracil] + C[C@]12O[C@H](C[C@]1(O)CO)n1c3ccccc3c3c4c(c5c6ccccc6n2c5c31)CNC4=O [Lestaurtinib]
cell viability [%], BV-173
Settings | drug1 concentration 5 nM | drug1 concentration 10 nM | drug1 concentration 50 nM | drug1 concentration 100 nM | drug1 concentration 500 nM | drug1 concentration 1000 nM | drug1 concentration 5000 nM
drug2 concentration 1 nM | > 100 | > 100 | > 100 | > 100 | 86.1 | 79.2 | 47.6
drug2 concentration 5 nM | > 100 | 81.2 | 85.7 | 86.6 | > 100 | 82.8 | 69.9
drug2 concentration 10 nM | 93 | 95.9 | 87.7 | > 100 | 72.4 | 74.2 | 71.8
drug2 concentration 50 nM | 60.2 | 59.9 | 50 | 68.2 | 58.5 | 59.2 | 35
drug2 concentration 100 nM | 68 | 43.6 | 46.5 | 47.5 | 40.6 | 44.3 | 20.2
drug2 concentration 500 nM | 18.1 | 36.8 | 20.9 | 25.8 | 20.4 | 20.7 | 9.65
drug2 concentration 1000 nM | 19.6 | 37.9 | 24.6 | 30.9 | 42.5 | 27.9 | 8.5

CN(C)CCNC(=O)c1cccn2c(=O)c3cc4ccccc4cc3nc12 [Bmh-21]
Settings | area under dose-response curve
[1] | 0.121
[2] | 0.0874
[3] | 0.233
[4] | 0.338
[5] | 0.263
[6] | 0.396
[7] | 0.372
[8] | 0.31
[9] | 0.368
[10] | 0.199
[11] | 0.254
[12] | 0.318
[13] | 0.351
[14] | 0.386
[15] | 0.36

Nc1nc(O)c2c(CCc3ccc(C(=O)N[C@@H](CCC(=O)O)C(=O)O)cc3)c[nH]c2n1 [Pemetrexed]
Settings | area under dose-response curve
[1] | < 0.0301
[2] | < 0.0301
[3] | < 0.0301
[4] | < 0.0301
[5] | < 0.0301
[6] | 0.0468
[7] | 0.0877
[8] | < 0.0301
[9] | < 0.0301
[10] | < 0.0301
[11] | < 0.0301
[12] | < 0.0301
[13] | 0.196
[14] | < 0.0301
[15] | < 0.0301

CN(C)CCNC(=O)c1cccn2c(=O)c3cc4ccccc4cc3nc12 [Bmh-21] + O=C(O)CC[N+](=O)[O-] [3-nitropropionic acid]
cell viability [%], BV-173
Settings | drug1 concentration 5 nM | drug1 concentration 10 nM | drug1 concentration 50 nM | drug1 concentration 100 nM | drug1 concentration 500 nM | drug1 concentration 1000 nM | drug1 concentration 5000 nM
drug2 concentration 5 nM | > 100 | > 100 | > 100 | 95.6 | 6.08 | 1.91 | 0.1
drug2 concentration 10 nM | 94.1 | > 100 | > 100 | > 100 | 19.6 | 3.29 | -1.01
drug2 concentration 50 nM | > 100 | 79.4 | 83.4 | > 100 | 0.68 | 35.3 | -0.78
drug2 concentration 100 nM | 82.9 | > 100 | > 100 | 94.8 | 2.69 | -0.53 | 0.59
drug2 concentration 500 nM | > 100 | 86.6 | 88.3 | > 100 | 38.2 | 68 | -0.99
drug2 concentration 1000 nM | 92 | > 100 | > 100 | 66.9 | 10.4 | -1.13 | 0.46
drug2 concentration 5000 nM | > 100 | > 100 | > 100 | 99.5 | 0.21 | -1.32 | 0
